Measurements reported in a melting point compilation (Tetko et al.; mined from patent text by program, amines drawn as free bases though some values may be those of a salt).

Compound | melting point [°C]
COc1cc2c(cc1N)CCCC2 | 121
CCOc1cc2ncc(C#N)c(NCc3ccc(OC)c(OC)c3)c2cc1OCC | 200 to 204
CC(CCC(F)C(C)(C)O)C1CCC2C3CC=C4CC(O)CC(O)C4(C)C3CCC12C (configuration not stated) | 156 to 158
CC1=NC(=NOC(=O)NC2CCC2)SC1(C)C | 94 to 96
COc1ccc(/C=C/c2nc3c(c(=O)n(C)c(=O)n3C)n2C)c(OC)c1C | 253 to 254
Cn1cc2c(c1-c1ccccc1)C(=O)c1ccccc1C2=O | 268 to 271
COC(=O)COCc1cc2cc(Cl)ccc2n1S(=O)(=O)c1ccccc1 | 98 to 100
C[C@H](NC(=O)C1(C)Oc2cc([N+](=O)[O-])ccc2NC1=O)C(=O)N[C@H](CCC(=O)O)C(=O)O (some centres not stated) | 132 to 135
CC(=O)c1cc(Cl)ccc1Nc1ccc(OCc2ccccc2)cc1 | 74 to 75
CCOC(=O)C1CCN(c2cc(-c3ccccc3)nc3ccc(F)cc23)CC1 | 120 to 124
CCOC(=O)CNc1ncccc1NC(=O)c1cccc(F)c1 | 134 to 135
CS(=O)(=O)c1ccc(-c2cnn(-c3ccc(C#N)cc3)c(=O)c2-c2ccc(F)cc2)cc1 | 273 to 278
CCCc1nc2c(N)nc(C)c(C)c2n1CCCCN(O)C(C)=O | 164 to 166
Cn1cnc2cc(NC(=O)c3cc4cc(F)ccc4n3Cc3cccc(F)c3)cnc21 | 235 to 236
CC(=O)NC(=Cc1ccccc1)C1=NC(=Cc2ccc(F)cc2)C(=O)O1 | 172
CSc1cc(CBr)cc(SC)c1 | 76 to 77
COC(=O)[C@@H]1CCCN1C(=O)C[C@H]1CCc2ccccc2C1 | 62 to 64
CC(C)(C)N(N)C(=O)c1ccccc1 | 124 to 125
Cc1cc(C(=O)NCO)ncc1C(c1c(F)ccc(F)c1F)S(=O)(=O)CCC(C)(F)F (configuration not stated) | 161 to 162
O=C1C=C(Cl)C(=O)c2ccccc21 | 154 to 156
COC(=O)C1=C(N)CCC1 | 95 to 96
O=C(NNc1nc(C(F)(F)F)nc(-c2ccncc2)c1-c1ccc(F)cc1)C(F)(F)F | 240 to 242
CC(C)(C)CC(C)(C)c1ccc(C(=O)O)cc1 | 153 to 155
CCCCc1cn(CCC)c(=O)n1Cc1ccc(-c2ccccc2-c2nnn[nH]2)nc1 | 164 to 165

Compound | melting point [°C]
Cc1ccc(C)c(C(=O)c2c(S(C)(=O)=O)nn(-c3c(Cl)cc(C(F)(F)F)cc3Cl)c2N)c1 | 194
CC(C)C(O)(Cn1cncn1)c1ccc(Oc2ccc(Cl)cc2)cc1C(F)(F)F (configuration not stated) | 114
Cc1cccc(-c2nc3cccnn3c2-c2ccnc(NCC(C)(C)C)c2)c1 | 157 to 158
NC[C@H]1COc2ccc(Cl)c(-c3ccccc3C(F)(F)F)c2O1 | 84
O=C(O)Cc1cc(Cl)ccc1OCCCc1ccccc1 | 95 to 96.5
COc1cc(CCCN(C)Cc2ccc(OC)c(OC)c2)ccc1NC(=O)c1cccc2c(=O)c3cccc(OC)c3[nH]c12 | 105
O=C1OC(c2ccccc2)=NC1=Cc1ccc(Oc2ccccc2)cc1 | 156 to 158
Cc1nnc(-c2cc3cccc(OC[C@@H](O)CN4CCC(c5ccc6ccccc6c5)CC4)c3o2)o1 | 140 to 142
Cc1noc(NS(=O)(=O)c2ccccc2-c2ccc(-c3ccon3)cc2)c1C | 85 to 90
COC(=O)[C@@](N)(CCSC)C(=O)c1ccc(NC[C@@H]2C[C@@H](O)CN2C(=O)OC(C)(C)C)cc1-c1ccccc1 | 81
Cc1cccc(C(=O)c2[nH]c3cc(Cl)ccc3c2N)c1 | 80 to 88
O=C(O)[C@@H]1CCCN1C(=S)CCc1ccccc1 | 86 to 88
O=c1oc(-c2ccccc2)cc(O)c1C(CC1CCCC1)SC1CCCCC1 (configuration not stated) | 157 to 160
CCCCCCCCCCCCS(=O)CCOc1ccc(CCC(=O)C(F)(F)F)cc1 (configuration not stated) | 98 to 100
CC(=O)Nc1ccc(-c2c[nH]c(=O)cn2)cc1 | 268 to 275
COc1cc2nc(SCc3nccc(N4CCOCC4)c3Cl)[nH]c2cc1OC | 109 to 112
COc1ccc(/C=C/C(=O)C2C(=O)CC(c3ccc(OC)cc3)C([N+](=O)[O-])C2C=Cc2ccccc2)cc1 (configuration not stated) | 88 to 90
CC(C)NS(=O)(=O)c1cc(-c2ncnc(C(F)F)c2Cl)c(F)cc1Cl | 172 to 175
Cc1sc(N)nc1-c1cccc2ccccc12 | 194 to 195
COC(=O)c1ccc(OS(N)(=O)=O)cc1 | 116 to 118
CS(=O)(=O)N1CCOc2ccc(C3=NNC(=O)CC3)cc21 | 245
Cc1nn(-c2cc(C(=O)NS(=O)(=O)N(C)C(C)C)c(Cl)cc2F)c(=O)n1C(F)F | 118 to 122
C[C@H](NC(=O)C1(C)Sc2ccccc2NC1=O)C(=O)N[C@H](CCC(=O)O)C(N)=O (some centres not stated) | 124 to 125
O=C1N(c2ccccc2)CCN1C1CCN(Cc2ccccc2)CC1 | 168 to 170

The next lines start with the values.

melting point [°C] | Compound
104 to 107 | C=CCN(c1ccccc1C=C(SC)S(C)=O)c1c(Cl)cccc1Cl (configuration not stated)
178 to 182 | Clc1ccc(C=Cc2nc[nH]n2)cc1
267 to 270 | O=[N+]([O-])c1ccc2ncnc(Nc3cccc(Br)c3)c2c1
148 to 150 | CS(=O)(=O)c1ccc(-c2oncc2C(=O)C2CC2)cc1Cl
252 | COc1cc2nc(COc3ccc(CC4SC(=O)NC4=O)cc3)n(C)c(=O)c2cc1OC (configuration not stated)
144 to 147 | Oc1ccc2c(c1)[C@H](O)[C@H](Cc1cccnc1)CO2 (relative stereo)
75 | ClCCCCn1c2c(c3ccccc31)CCSc1ccccc1-2
138 | N#CCCn1nc(-c2ccc(OCc3ccccc3)cc2)sc1=S
140 to 141 | CCOCCOC(=O)C(=O)Nc1nc(-c2cc(OC)ccc2OC)cs1
> 250 | CC1CCCN(c2c(Br)cc3c4c(cccc24)C(=O)N(O)C3=O)C1 (configuration not stated)
51 to 52 | CC(CC1CCCCC1)C(=O)COS(=O)(=O)c1ccccc1 (configuration not stated)
169 to 171 | CCc1nc2ccccn2c1S(N)(=O)=S (configuration not stated)
164 to 165 | COc1ccc(C(=O)Nc2cc(NC(=O)c3ccc(N(C)CCCN(C)C)cc3)ccc2C)cc1OC
187 | CCCCCc1c(C(=O)O)nn(-c2ccc(Cl)cc2Cl)c1-c1ccc(Cl)cc1
281 to 282 | COc1cc(Nc2c(C#N)cnc3cc(-c4cc5ccccc5o4)sc23)c(Cl)cc1Cl
157 to 160 | COc1cc(OCC(=O)N[C@@H]2CCN(Cc3ccccc3)C2)ccc1C=NNC(=O)c1ccc(O)c(N)c1
135 to 136 | O=C(NC[C@H]1CN(c2ccc(C3C=CS(=O)(=O)CC3)cc2)C(=O)O1)C(F)F (some centres not stated)
94 to 96 | CCOC(=O)c1[nH]c(CC)c(CC(C)C)c1C
148 to 149 | CC1CC(C)CN(C(=O)C2Cc3ccccc3N2C(=O)OC(C)(C)C)C1 (configuration not stated)
141 to 149 | Cc1sc(Cl)cc1C1(c2cccc(-c3cncnc3)c2)N=C(N)N(C)C1=O (configuration not stated)
167 to 169 | CCN(C)c1nc2cc(NC(=O)c3c(C(=O)N4CCOCC4)cnn3C)ccn2n1
199 to 203 | CC(=O)Nc1cc([N+](=O)[O-])c(C(=O)O)c([N+](=O)[O-])c1O
232 | COc1ccc(C2C(C(=O)c3ccc(N4CCOCC4)cc3)=C(O)C(=O)N2c2ccc(C)nn2)cc1 (configuration not stated)
211 to 214 | Nc1ncnc2c1c(-c1cn[nH]c1)nn2Cc1oc2ccc(F)cc2c(=O)c1-c1ccccc1
83 to 85.5 | O=C1C(CCO)Oc2ccccc2N1Cc1ccccc1 (configuration not stated)

melting point [°C] | Compound
129 to 130 | CC(C)C1CCC(C(=O)N[C@H](Cc2ccccc2)C(=O)O)CC1 (some centres not stated)
236 to 238 | O=C(Nc1ccc(Oc2ccc(C(=O)N3CCC(C(=O)N4CCN(Cc5ccc6c(c5)OCO6)CC4)CC3)cc2)nc1)c1ccc(Cl)c(Cl)c1
225 to 227 | COc1cc(Nc2c(C#N)cnc3cc(N4CCC(N5CCCC5)CC4)c(OC)cc23)c(Cl)cc1Cl
199 to 201 | CN1CCN(C(=O)Cn2nc(-c3ccccc3O)nc2-c2ccccc2O)CC1
228 to 230 | Nc1cc(C(=O)Cn2c(-c3nonc3N)nc3ccccc32)ccc1Cl
211 to 214 | Cn1c(COc2ccc(CC3SC(=O)NC3=O)cc2)nc2ccc(Oc3ccc(NC(=O)Nc4cccc5ccccc45)cc3)cc21 (configuration not stated)
96 to 105 | CCOC(=O)C1CCN(Cc2c[nH]c3cccc(F)c23)CC1
138 to 142 | CCCCCCCCCCCCCCCCCCCC(=O)Nc1ccn(C2OC(CO)C(O)C2O)c(=O)n1 (configuration not stated)
99 to 100 | CN(Cc1ccccc1)Cc1cnc(NC(=O)C(Cc2ccc(F)cc2)c2ccc(S(C)(=O)=O)cc2)cn1 (configuration not stated)
137 to 138 | ON=C1CCC(O)(c2ccccc2Cc2ccccc2)CC1 (configuration not stated)
92 to 94 | CCCCOc1cc(-c2ccccc2)c(OCC(=O)O)c(-c2ccccc2)c1
159 | O=S(=O)(NCc1ccncc1)c1ccc(Br)s1
215 to 216 | NC1=NS(=O)(=O)Nc2cccc(OC3CCCCC3)c21
195 to 197 | CCCNC(=N)NC(=O)NCc1ccccn1
94 to 95 | O=C1NC2c3ccccc3CC2O1 (configuration not stated)
63 to 78 | CC=C1CCC2C3CCC4CC(O)C(OCC)CC4(C)C3C(N(C)C)CC12C (configuration not stated)
249 to 250 | Cc1c(C(=O)Nc2ccc(N3CCC(N4CCOCC4)CC3)c(C#N)c2)cnn1-c1ccc(Cl)cc1
123 to 124 | C/C(=C\c1ccc(O)cc1)c1ccc2c(c1)SC(C)(C)S2
170 | Cc1nc2c(O)c(C(=O)[C@H](O)[C@@H](O)c3ccccc3)ccc2n1C
173 to 175 | CCCCOc1c(CN)n(CC(C)C)c(=O)c2ccc(/C=C/C(N)=O)cc12
200 to 203 | CC(C)NC(=O)c1cccc(I)c1C(=O)Nc1ccc(OCC(F)(F)F)nc1
94 to 97 | CON1CCC2(CC1)C(=O)C(c1c(C)ccc(Cl)c1C)([N+](=O)[O-])C(=O)N2OC (configuration not stated)
130 to 132 | O=C1C(CCS(=O)c2ccccc2)C(=O)N(c2ccccc2)N1c1ccccc1 (configuration not stated)
246 to 247 | CCCn1c(=O)c2[nH]c(/C=C/c3ccc(OC)c(OC)c3OC)nc2n(CCC)c1=O
